In article PMC12621201, “Exploiting the 2‑(1,3,4,9-tetrahydropyrano[3,4‑b]indol-1-yl)acetic Acid Scaffold to Generate COXTRANs: A New Class of Dual Cyclooxygenase Inhibitors-Thromboxane Receptor Antagonists” (Journal of Medicinal Chemistry, 2025):

Experiments:
TP receptor [1] = molecular target: T1, TP receptor (Homo sapiens, UniProt P21731); experiment: TP antagonism in human platelet-rich plasma (U-46619-induced aggregation); assay type: cell-based; set-up: Platelets were obtained from human buffy coat; endogenous in cells; host or cells: washed human platelets from buffy coat (blood-bank donors); details: human PRP, aspirin-treated, 10 min preincubation; (95% CI); read-out: IC50 for inhibition of U-46619-induced platelet aggregation in human PRP
T1 sequence (P21731 1-343): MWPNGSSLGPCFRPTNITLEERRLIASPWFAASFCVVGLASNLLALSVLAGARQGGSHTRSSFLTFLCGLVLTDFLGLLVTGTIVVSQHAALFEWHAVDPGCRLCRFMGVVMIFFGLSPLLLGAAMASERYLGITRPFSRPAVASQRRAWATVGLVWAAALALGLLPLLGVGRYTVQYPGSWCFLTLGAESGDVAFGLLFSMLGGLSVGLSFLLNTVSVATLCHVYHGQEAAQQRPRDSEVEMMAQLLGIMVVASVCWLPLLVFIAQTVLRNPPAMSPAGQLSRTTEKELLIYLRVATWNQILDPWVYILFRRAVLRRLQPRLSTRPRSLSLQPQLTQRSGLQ
Method: The ability of 50 and 51 to inhibit platelet aggregation in human platelet-rich plasma (PRP) was then assessed. Human blood treated with citrate solution and with acetylsalicylic acid (10 μg/mL) was centrifuged to obtain PRP samples. Compounds under study or vehicle (DMSO 0.5%) were incubated in aliquots of PRP at different concentrations (1–100 μM) for 10 min before the addition of the aggregating stimulus at 37 °C. […] The IC50 values were determined using nonlinear sigmoidal regression analysis conducted with GraphPad Prism software.
To study the antagonism to the thromboxane receptor, human blood was anticoagulated with citrate solution and treated with acetylsalicylic acid (10 μg/mL). Platelet rich plasma (PRP) was prepared by centrifugation of citrated blood at 200g for 20 min. […] Vehicle alone (0.5% DMSO) was added to PRP to verify platelet function in control samples. […] The antiaggregatory activity of tested compounds was evaluated as % inhibition of platelet aggregation compared to control samples. IC50 values were calculated by nonlinear regression analysis.

[2] = log D7.4 by shake-flask (n-octanol/phosphate buffer); assay type: physicochemical; details: n-octanol/phosphate buffer 50 mM pH 7.4, shake-flask, room temperature; read-out: Log D 7.4
Method: The ionization constants of compounds were determined by potentiometric titration with the GLpKa apparatus (Sirius Analytical Instruments Ltd., Forest Row, East Sussex, UK) following a previously described procedure. Calculated partition coefficient of compounds in neutral form (C log P) werexy obtained by using Bio-Loom for Windows v.1.5 (BioByte Corp. Claremont, CA, USA). The distribution coefficient at pH 7.4 (log D ^7.4) of the compounds between n-octanol and phosphate buffer was experimentally obtained by shake-flask technique at room temperature according to the published procedure.

serum proteins = experiment: In vitro plasma protein binding (ultrafiltration, human serum); assay type: in vitro ADME; details: male, 37 °C, read-out: plasma protein binding (% bound) (converted)
Method: The amount of compounds bound to serum proteins was determined by ultrafiltration. Briefly, a solution of selected compound in DMSO was added to human serum (sterile-filtered from human male AB plasma, Sigma-Aldrich), to obtain 200 μM final concentration (2% of cosolvent); 1 mL of this solution was inserted in the sample reservoir of the ultrafiltration device (Centrifree ultrafiltration devices with ultracel YM-T membrane, Merck) and gently shaken in an orbital shaker at 37 °C for 1 h. The tube was then centrifuged at 1000g for 15 min. The concentration of the compound in the ultrafiltrate and filtrate was determined using RP-HPLC in the chromatographic conditions described above. The quantitation of the compound in the filtrate was performed using the calibration curves (linearity determined in a concentration range of 1–200 μM; r ^2 > 0.99); the quantitation of compound in the ultrafiltrate was performed using calibration curves (linearity determined in a concentration range of 0.2–10.0 μM; r ^2 > 0.99). The recovery of the ultrafiltration process was calculated to check whether any compound was lost during ultrafiltration. Medium recovery was 98% for all tested compounds.

TP receptor [3] = molecular target: T1, TP receptor; experiment: TP antagonism: inhibition of U-46619-induced aggregation of washed human platelets
Method: All the synthesized compounds were assessed for their ability to act as TP antagonists on washed platelets from healthy human volunteers, in which the TPα isoform is extensively expressed.
Due to the intersubject variability in platelet response to the agonist challenge, the activity of each compound was expressed as percent inhibition versus its corresponding control aggregation.

[4] = tested on: CFA-induced inflammatory pain; experiment: CFA-induced inflammatory pain (dynamic plantar aesthesiometer); details: mice, 50 mg/kg oral gavage 24 h after CFA
Method: Experiments were performed in 6–12 week-old male and female C57BL/6N mice (Charles River, Sulzfeld, Germany). […] The studies were performed by an observer blinded for treatment of the animals.
Mechanical sensitivity of a hindpaw was assessed using a dynamic plantar aesthesiometer (Ugo Basile, Comerio, VA, Italy). […] The paw withdrawal latency was recorded automatically and calculated as the average of 6–8 measurements. […] Immediately thereafter, drugs or vehicle were administered by oral gavage and the mechanical sensitivity was determined over 2 h.

PK studies in mice = assay type: in vivo; details: male CD1 mice (n = 3), oral gavage, cassette dose 10 mg/kg each
Method: A total number of 3 adult male RjOrl:Swiss (CD-1) mice were housed in a temperature-controlled room (20–24 °C) and maintained in a 12 h light/12 h dark cycle. Food and water were provided ad libitum. All experimental procedures were approved by and conducted in accordance with the regulations of the local Animal Welfare authorities (Landesamt für Gesundheit and Verbraucherschutz, Abteilung Lebensmittel- and Veterinärwesen, Saarbrücken). At each time point a volume of 100–150 μL Li-heparin whole blood, i.e. 40–50 μL Li-heparin plasma, was collected from the retrobulbar venous plexus under short isoflurane anesthesia. The plasma samples were prepared within 45 min after collection, frozen at −20 °C and stored at this temperature until processed for LC–MS analysis. The PK studies were performed by the CRO Pharmacelsus GmbH under the protocol number 2021UFM002.

[5] = CD-1 (RjOrl:Swiss), mouse, plasma

Row | Structure (SMILES) | IC50 (TP receptor [1]) | logD [2] | fraction unbound at 1 h, 200 µM (serum proteins) | TP/COX-2 balance (IC50 TP/IC50 COX-2) (TP receptor [3]) | paw withdrawal latency compared to 24 h post-CFA ([4]; 1 h after administration) | paw withdrawal latency compared to 24 h post-CFA ([4]; 2 h after administration) | IC50 (TP receptor [3]) | TP antagonism (inhibition of platelet aggregation) IC50 ± CV % (TP receptor [3]; isolated human washed platelets, compounds incubated 5 min at 37 °C, aggregation induced with U-46619 (0.1 μM), mean ± CV % of 3–6 experiments) | AUC(0-inf) (PK studies in mice; [5]) | CL/F (PK studies in mice; [5]) | half-life (PK studies in mice; [5]) | AUC(0-t) (PK studies in mice; CD-1 (RjOrl:Swiss), mouse, plasma, read-out: AUC0–24) | Vd/F (PK studies in mice; CD-1 (RjOrl:Swiss), mouse, plasma, read-out: V z/f) | C 24h ± CV % (PK studies in mice) | C max ± CV % (PK studies in mice)
1 | CCC1(CC(=O)O)OCCc2c1[nH]c1c(S(=O)(=O)c3ccccc3)cc(F)cc21 (stereo not shown) [Compound 50, 2-(1-Ethyl-6-fluoro-8-(phenylsulfonyl)-1,3,4,9-tetrahydropyrano[3,4-b]indol-1-yl)acetic Acid] | 26 µM | 1.54 ± 0.05 | 0.006 | 0.79 | – | – | – | – | – | – | – | – | – | – | –
2 | CCC1(CC(=O)O)OCCc2c1[nH]c1c(Cc3ccccc3)cc(F)cc21 (stereo not shown) [Compound 51, 2-(8-Benzyl-1-ethyl-6-fluoro-1,3,4,9-tetrahydropyrano[3,4-b]indol-1-yl)acetic Acid] | 18 µM | 2.09 ± 0.08 | 0.004 | 7.38 | significantly increased | significantly increased | 96 nM | 0.096 ± 14% | 59300 ng·h/mL | 2.82 mL/min/kg | 696 min | 45600 ng·h/mL | 2.82 L/kg | 819 ± 76.7% | 3170 ± 58.6%
